Assay results taken from ChEMBL document CHEMBL1909046, “DrugMatrix in vitro pharmacology data”.

Key:
[1] = biological target: T1, Thromboxane-A synthase (Homo sapiens, UniProt P24557); test: biochemical; assay type: tissue-based, Platelet;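 note: enzyme inhibition assay with PGH2 supplied as substrate; in other assays of this panel Not Active means under 50% inhibition at 10 µM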
T1 sequence (P24557 whole entry): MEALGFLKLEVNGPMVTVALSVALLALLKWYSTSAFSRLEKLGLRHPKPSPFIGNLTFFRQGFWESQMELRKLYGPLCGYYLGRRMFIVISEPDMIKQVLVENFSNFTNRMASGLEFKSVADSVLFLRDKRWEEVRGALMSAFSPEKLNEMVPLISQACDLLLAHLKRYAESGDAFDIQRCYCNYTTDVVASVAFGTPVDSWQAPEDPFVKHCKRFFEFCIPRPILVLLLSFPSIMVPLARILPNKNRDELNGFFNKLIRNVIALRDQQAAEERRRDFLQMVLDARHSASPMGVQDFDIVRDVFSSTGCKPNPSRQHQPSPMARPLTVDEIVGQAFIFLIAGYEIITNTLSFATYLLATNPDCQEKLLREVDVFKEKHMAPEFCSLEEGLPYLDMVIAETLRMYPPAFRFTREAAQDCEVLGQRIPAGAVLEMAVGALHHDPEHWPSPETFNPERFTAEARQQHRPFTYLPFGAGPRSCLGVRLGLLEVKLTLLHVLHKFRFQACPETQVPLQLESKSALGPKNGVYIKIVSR

[2] = DRUGMATRIX: Platelet-Derived Growth Factor (PDGF) radioligand binding (ligand: [125I] PDGF); assay type: cell-based; settings: nih3t3; Not Active = under 50% inhibition at 10 µM
[3] = biological target: Estrogen receptor beta (Homo sapiens, UniProt Q92731); settings: sf9; note: in other assays of this panel Not Active means under 50% inhibition at 10 µM
[4] = biological target: Cytochrome P450 2D6 (Homo sapiens, UniProt P10635); settings: bti-tn-5b1-4; note: in other assays of this panel Not Active means under 50% inhibition at 10 µM
[5] = biological target: Sodium-dependent dopamine transporter (Homo sapiens, UniProt Q01959); test: DRUGMATRIX: Dopamine Transporter radioligand binding (ligand: [125I] RTI-55); assay type: cell membranes, CHO-K1, Membrane; settings: cho-k1; Not Active = under 50% inhibition at 10 µM
[6] = DRUGMATRIX: Sodium/nucleoside co-transporter radioligand binding (ligand: nitrobenzylthioinosine); assay type: cell membranes, Cavia porcellus, Dunkin-Hartley, Cerebral cortex, Membrane; settings: Not Active = under 50% inhibition at 10 µM
[7] = biological target: Adenosine receptor A2a (Homo sapiens, UniProt P29274); test: DRUGMATRIX: Adenosine A2A radioligand binding (ligand: […]); assay type: cell membranes, HEK293, Membrane; settings: hek293; Not Active = under 50% inhibition at 10 µM
[8] = DRUGMATRIX: Purinergic P2X radioligand binding (ligand: [3H] alpha, beta-Methylene-ATP); assay type: cell membranes, Oryctolagus cuniculus, New Zealand albino, Urinary bladder, Membrane; settings: Not Active = under 50% inhibition at 10 µM
[9] = biological target: T2, Muscarinic acetylcholine receptor M4 (Homo sapiens, UniProt P08173); assay type: cell membranes, CHO-K1, Membrane; settings: cho-k1; note: in other assays of this panel Not Active means under 50% inhibition at 10 µM
T2 sequence (P08173 whole entry): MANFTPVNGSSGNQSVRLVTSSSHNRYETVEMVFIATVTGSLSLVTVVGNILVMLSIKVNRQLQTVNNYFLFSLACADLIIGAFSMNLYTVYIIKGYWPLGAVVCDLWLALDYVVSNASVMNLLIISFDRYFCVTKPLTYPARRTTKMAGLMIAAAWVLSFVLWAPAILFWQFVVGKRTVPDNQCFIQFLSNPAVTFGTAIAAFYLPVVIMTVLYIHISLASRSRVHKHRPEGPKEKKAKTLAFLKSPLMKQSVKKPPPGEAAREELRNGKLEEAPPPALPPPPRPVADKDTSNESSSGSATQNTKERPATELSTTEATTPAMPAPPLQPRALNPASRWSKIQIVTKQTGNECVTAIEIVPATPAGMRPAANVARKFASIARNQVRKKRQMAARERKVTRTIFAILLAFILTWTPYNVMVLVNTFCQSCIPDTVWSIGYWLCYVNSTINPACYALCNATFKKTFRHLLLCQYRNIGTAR

[10] = biological target: D(3) dopamine receptor (Homo sapiens, UniProt P35462); test: DRUGMATRIX: Dopamine D3 radioligand binding (ligand: [3H] Spiperone); assay type: cell membranes, CHO, Membrane; settings: cho
[11] = biological target: T3, Glucocorticoid receptor (Homo sapiens, UniProt P04150); settings: hela s3; note: in other assays of this panel Not Active means under 50% inhibition at 10 µM
T3 sequence (P04150 whole entry): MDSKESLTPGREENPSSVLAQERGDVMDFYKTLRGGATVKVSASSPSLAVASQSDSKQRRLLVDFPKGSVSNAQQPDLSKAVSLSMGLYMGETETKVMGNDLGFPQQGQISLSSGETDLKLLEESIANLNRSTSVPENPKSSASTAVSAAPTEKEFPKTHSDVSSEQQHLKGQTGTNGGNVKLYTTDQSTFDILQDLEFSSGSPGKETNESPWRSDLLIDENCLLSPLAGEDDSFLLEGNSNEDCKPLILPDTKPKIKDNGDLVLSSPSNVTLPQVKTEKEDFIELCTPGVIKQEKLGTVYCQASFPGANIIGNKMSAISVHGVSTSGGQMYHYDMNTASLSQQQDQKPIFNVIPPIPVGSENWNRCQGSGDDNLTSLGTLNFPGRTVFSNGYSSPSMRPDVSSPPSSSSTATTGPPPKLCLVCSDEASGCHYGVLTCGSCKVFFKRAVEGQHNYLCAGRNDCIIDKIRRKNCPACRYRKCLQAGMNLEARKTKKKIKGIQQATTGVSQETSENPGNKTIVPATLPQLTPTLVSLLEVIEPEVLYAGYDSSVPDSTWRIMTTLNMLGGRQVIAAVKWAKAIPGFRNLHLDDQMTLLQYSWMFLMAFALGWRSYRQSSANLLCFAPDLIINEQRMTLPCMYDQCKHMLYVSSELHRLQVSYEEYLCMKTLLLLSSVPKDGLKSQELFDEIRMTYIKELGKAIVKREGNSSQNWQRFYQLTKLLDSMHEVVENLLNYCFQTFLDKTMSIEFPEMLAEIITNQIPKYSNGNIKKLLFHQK

[12] = biological target: Melanocortin receptor 4 (Homo sapiens, UniProt P32245); assay type: cell membranes, Membrane; settings: hek293; note: in other assays of this panel Not Active means under 50% inhibition at 10 µM
[13] = DRUGMATRIX: Glutamate, AMPA radioligand binding (ligand: [3H] AMPA); assay type: cell membranes, Rattus norvegicus, Wistar, Cerebral cortex, Membrane; settings: Not Active = under 50% inhibition at 10 µM
[14] = biological target: C-C chemokine receptor type 5 (Homo sapiens, UniProt P51681); assay type: cell membranes, Membrane; settings: hek293; note: in other assays of this panel Not Active means under 50% inhibition at 10 µM
C-C chemokine receptor type 5, sequence (P51681 whole entry): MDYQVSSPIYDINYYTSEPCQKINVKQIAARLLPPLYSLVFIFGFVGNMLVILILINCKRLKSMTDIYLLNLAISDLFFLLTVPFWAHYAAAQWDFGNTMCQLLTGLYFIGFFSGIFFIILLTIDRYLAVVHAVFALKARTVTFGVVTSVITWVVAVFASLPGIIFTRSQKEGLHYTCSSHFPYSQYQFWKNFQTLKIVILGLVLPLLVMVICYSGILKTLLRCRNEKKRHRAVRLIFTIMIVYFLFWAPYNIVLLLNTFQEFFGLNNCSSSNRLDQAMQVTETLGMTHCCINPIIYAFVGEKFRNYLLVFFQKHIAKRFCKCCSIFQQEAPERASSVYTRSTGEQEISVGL

Cytochrome P450 2D6, sequence (P10635 whole entry): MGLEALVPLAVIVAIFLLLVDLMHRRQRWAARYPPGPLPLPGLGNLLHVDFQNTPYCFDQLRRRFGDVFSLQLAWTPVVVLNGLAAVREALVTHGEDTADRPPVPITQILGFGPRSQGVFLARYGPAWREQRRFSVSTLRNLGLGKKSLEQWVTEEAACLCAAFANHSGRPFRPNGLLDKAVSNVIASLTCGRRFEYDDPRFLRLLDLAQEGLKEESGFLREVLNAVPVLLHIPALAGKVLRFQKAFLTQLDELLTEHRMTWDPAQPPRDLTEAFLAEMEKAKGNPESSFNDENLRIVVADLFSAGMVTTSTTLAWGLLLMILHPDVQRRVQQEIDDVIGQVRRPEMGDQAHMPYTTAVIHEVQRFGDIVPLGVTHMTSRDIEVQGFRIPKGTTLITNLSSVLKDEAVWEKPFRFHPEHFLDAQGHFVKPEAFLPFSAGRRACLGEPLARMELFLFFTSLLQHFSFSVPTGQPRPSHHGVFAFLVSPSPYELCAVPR
Melanocortin receptor 4, sequence (P32245 whole entry): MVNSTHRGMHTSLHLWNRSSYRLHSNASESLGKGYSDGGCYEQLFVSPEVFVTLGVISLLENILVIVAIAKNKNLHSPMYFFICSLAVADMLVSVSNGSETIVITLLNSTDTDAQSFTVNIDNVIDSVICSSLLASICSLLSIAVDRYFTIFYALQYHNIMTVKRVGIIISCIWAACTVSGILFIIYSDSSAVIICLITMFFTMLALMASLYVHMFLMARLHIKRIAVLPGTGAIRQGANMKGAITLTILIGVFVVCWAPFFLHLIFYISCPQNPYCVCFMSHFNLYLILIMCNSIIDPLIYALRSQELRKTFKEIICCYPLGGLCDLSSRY
D(3) dopamine receptor, sequence (P35462 whole entry): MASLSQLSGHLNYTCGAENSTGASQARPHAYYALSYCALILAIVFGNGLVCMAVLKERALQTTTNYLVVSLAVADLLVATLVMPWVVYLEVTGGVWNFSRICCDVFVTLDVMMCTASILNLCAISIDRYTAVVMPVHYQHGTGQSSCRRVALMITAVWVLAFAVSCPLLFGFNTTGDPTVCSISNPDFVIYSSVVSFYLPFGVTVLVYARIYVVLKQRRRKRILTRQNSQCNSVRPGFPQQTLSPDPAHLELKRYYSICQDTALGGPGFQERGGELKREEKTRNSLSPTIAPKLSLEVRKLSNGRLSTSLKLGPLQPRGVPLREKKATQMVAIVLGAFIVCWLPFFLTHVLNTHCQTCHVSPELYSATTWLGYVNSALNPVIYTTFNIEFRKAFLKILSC
Adenosine receptor A2a, sequence (P29274 whole entry): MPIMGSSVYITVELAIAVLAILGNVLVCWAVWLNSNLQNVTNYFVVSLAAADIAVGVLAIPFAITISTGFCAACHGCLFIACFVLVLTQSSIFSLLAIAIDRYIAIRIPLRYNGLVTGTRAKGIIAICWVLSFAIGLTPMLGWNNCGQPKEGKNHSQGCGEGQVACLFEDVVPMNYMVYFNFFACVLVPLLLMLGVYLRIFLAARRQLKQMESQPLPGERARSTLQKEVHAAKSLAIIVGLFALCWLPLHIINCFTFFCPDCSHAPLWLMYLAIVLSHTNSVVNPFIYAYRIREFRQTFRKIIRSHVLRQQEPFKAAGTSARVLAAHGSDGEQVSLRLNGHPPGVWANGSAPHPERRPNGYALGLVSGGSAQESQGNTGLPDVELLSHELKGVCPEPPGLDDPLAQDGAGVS
Sodium-dependent dopamine transporter, sequence (Q01959 whole entry): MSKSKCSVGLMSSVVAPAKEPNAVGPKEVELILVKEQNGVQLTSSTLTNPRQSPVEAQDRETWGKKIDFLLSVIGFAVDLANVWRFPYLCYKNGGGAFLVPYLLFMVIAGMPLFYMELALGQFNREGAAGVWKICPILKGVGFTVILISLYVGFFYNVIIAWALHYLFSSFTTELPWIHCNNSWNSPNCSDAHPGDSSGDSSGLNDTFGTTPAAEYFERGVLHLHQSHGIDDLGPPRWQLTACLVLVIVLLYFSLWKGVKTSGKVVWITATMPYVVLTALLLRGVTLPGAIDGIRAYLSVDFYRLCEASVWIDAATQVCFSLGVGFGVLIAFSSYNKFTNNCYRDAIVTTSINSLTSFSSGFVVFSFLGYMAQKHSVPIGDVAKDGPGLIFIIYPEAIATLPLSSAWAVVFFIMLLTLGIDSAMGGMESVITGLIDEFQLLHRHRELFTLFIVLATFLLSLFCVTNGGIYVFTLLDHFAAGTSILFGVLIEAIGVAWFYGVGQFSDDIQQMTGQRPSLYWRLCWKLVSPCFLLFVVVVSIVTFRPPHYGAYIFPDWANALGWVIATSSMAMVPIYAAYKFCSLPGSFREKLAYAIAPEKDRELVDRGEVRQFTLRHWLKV
Estrogen receptor beta, sequence (Q92731 whole entry): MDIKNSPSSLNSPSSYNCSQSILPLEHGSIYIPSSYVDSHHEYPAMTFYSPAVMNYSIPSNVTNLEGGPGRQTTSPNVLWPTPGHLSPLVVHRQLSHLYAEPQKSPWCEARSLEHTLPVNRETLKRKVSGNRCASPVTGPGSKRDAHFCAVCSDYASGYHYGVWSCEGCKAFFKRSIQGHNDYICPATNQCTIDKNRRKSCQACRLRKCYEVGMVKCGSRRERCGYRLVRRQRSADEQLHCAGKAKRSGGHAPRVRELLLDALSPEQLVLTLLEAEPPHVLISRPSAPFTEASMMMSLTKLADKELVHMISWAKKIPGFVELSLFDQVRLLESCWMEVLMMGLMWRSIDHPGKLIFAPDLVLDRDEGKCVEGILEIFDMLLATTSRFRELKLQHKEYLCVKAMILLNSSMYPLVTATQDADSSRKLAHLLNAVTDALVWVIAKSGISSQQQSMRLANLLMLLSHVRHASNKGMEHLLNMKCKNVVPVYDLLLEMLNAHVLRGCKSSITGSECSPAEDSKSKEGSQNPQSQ

Structure (SMILES) | IC50 ([1]; platelet) | IC50 [2] | Ki [2] | IC50 [3] | IC50 [4] | Ki [4] | IC50 [5] | IC50 [6] | Ki [6] | IC50 [7] | IC50 [8] | Ki [8] | IC50 [9] | IC50 [10] | IC50 [11] | IC50 [12] | IC50 [13] | Ki [13] | IC50 [14] | IC50 ([1]; read-out: IC50) [µM]
COC(=O)[C@H](c1ccccc1Cl)N1CCc2sccc2C1 [CLOPIDOGREL] | Not Active | Not Active | Not Active | Not Active | Not Active | Not Active | Not Active | Not Active | Not Active | Not Active | Not Active | Not Active | Not Active | Not Active | Not Active | Not Active | Not Active | Not Active | Not Active | –
O=c1cc(-c2ccccc2)oc2c1ccc1ccccc12 [ALPHA-NAPHTHOFLAVONE] | – | Not Active | Not Active | Not Active | Not Active | Not Active | Not Active | Not Active | Not Active | Not Active | Not Active | Not Active | Not Active | Not Active | Not Active | Not Active | Not Active | Not Active | Not Active | 6.76
C=C1[C@@H]2CCC3[C@@](CC[C@@H]4[C@H](C(=O)O)C[C@@H](O[C@@H]5O[C@H](CO)[C@@H](OS(=O)(=O)[O-])[C@H](OS(=O)(=O)[O-])[C@H]5OC(=O)CC(C)C)C[C@@]34C)(C2)[C@@H]1O.[K+].[K+] (some centres not stated) [ATRACTYLOSIDE] | Not Active | Not Active | Not Active | Not Active | Not Active | Not Active | Not Active | Not Active | Not Active | Not Active | Not Active | Not Active | Not Active | Not Active | Not Active | Not Active | Not Active | Not Active | Not Active | –
NS(=O)(=O)c1cc2c(cc1Cl)NCNS2(=O)=O [HYDROCHLOROTHIAZIDE] | Not Active | Not Active | Not Active | Not Active | Not Active | Not Active | Not Active | Not Active | Not Active | Not Active | Not Active | Not Active | Not Active | Not Active | Not Active | Not Active | Not Active | Not Active | Not Active | –
COc1c(N2CCNC(C)C2)c(F)cc2c(=O)c(C(=O)O)cn(C3CC3)c12 (configuration not stated) [GATIFLOXACIN] | Not Active | Not Active | Not Active | Not Active | Not Active | Not Active | Not Active | Not Active | Not Active | Not Active | Not Active | Not Active | Not Active | Not Active | Not Active | Not Active | Not Active | Not Active | Not Active | –
CC[N+](CC)(CC)CCOc1cccc(OCC[N+](CC)(CC)CC)c1OCC[N+](CC)(CC)CC.[I-].[I-].[I-] [GALLAMINE TRIETHIODIDE] | Not Active | Not Active | Not Active | Not Active | Not Active | Not Active | Not Active | Not Active | Not Active | Not Active | Not Active | Not Active | Not Active | Not Active | Not Active | Not Active | Not Active | Not Active | Not Active | –
Nc1nc(=O)[nH]cc1F [FLUCYTOSINE] | Not Active | Not Active | Not Active | Not Active | Not Active | Not Active | Not Active | Not Active | Not Active | Not Active | Not Active | Not Active | Not Active | Not Active | Not Active | Not Active | Not Active | Not Active | Not Active | –
O=c1[nH]cc(F)c(=O)[nH]1 [FLUOROURACIL] | Not Active | Not Active | Not Active | Not Active | Not Active | Not Active | Not Active | Not Active | Not Active | Not Active | Not Active | Not Active | Not Active | Not Active | Not Active | Not Active | Not Active | Not Active | Not Active | –
